Reference: ChEMBL document CHEMBL1156354, “Anti-AIDS agents. 48.(1) Anti-HIV activity of moronic acid derivatives and the new melliferone-related triterpenoid isolated from Brazilian propolis” (J Nat Prod, 2001)
Values after ≈ are worked out from the molar mass of the structure shown.

Tests used:
[1] = test system: Human immunodeficiency virus 1; test: Antiviral activity against HIV1 3B infected in human H9 cells assessed as inhibition of viral p24 antigen levels after 4 days by ELISA; format: functional, organism-based
H9 = test: Cytotoxicity against human H9 cells; format: cell-based
[2] = Therapeutic index, ratio of IC50 for human H9 cells to EC50 of HIV1 3B; format: cell-based; details: for selectivity ratio: H9 cells, HIV-1 3B, read-out: Ratio IC50/EC50; for Ratio IC50/EC50: h9
[3] = Human immunodeficiency virus 1, 3B, H9, 96 h, read-out: EC50

| EC50 [1, 3] | EC50 ([1]; h9) | Structure (SMILES) | IC50 (H9) | selectivity ratio [2] | Ratio IC50/EC50 [2] |
| --- | --- | --- | --- | --- | --- |
| 2.19 µg/mL (≈ 11.4 µM) | – | COc1ccc(/C=C/C=O)cc1OC [3,4-DIMETHOXY CINNAMALDEHYDE] | 18.9 µg/mL (≈ 98.3 µM) | 8.62 | – |
| – | Not Active | CC1(C)CC[C@@]23CC[C@]4(C)[C@@](C=C[C@@H]5[C@@]6(C)CCC(=O)C(C)(C)[C@@H]6CC[C@]54C)(OC2=O)[C@@H]3C1 [MELLIFERONE] | 0.205 µg/mL (≈ 0.453 µM) | – | Not Active |
| < 0.1 µg/mL | – | CC1(C)C=C2[C@H]3CC[C@@H]4[C@@]5(C)CCC(=O)C(C)(C)[C@@H]5CC[C@@]4(C)[C@]3(C)CC[C@@]2(C(=O)O)CC1 [MORONIC ACID] | 18.6 µg/mL (≈ 40.9 µM) | > 186 | – |
| – | Not Active | COc1cc(C=O)ccc1O [VANILLIN] | > 100 µg/mL | – | Not Active |
| 0.00289 µg/mL (≈ 0.0108 µM) | – | Cc1cn([C@H]2C[C@H](N=[N+]=[N-])[C@@H](CO)O2)c(=O)[nH]c1=O [ZIDOVUDINE] | – | – | – |

Continued, compound first:

| Structure (SMILES) | EC50 [1, 3] | EC50 ([1]; h9) | IC50 (H9) | selectivity ratio [2] | Ratio IC50/EC50 [2] |
| --- | --- | --- | --- | --- | --- |
| CC1(C)C=C2[C@H]3CC[C@@H]4[C@@]5(C)CC[C@H](OC(=O)CC(C)(C)C(=O)O)C(C)(C)[C@@H]5CC[C@@]4(C)[C@]3(C)CC[C@@]2(C(=O)O)CC1 | 1 µg/mL (≈ 1.71 µM) | – | 18.1 µg/mL (≈ 30.9 µM) | 18 | – |
| CCC(=O)c1ccc(O)c(OC)c1 | – | Not Active | 18.8 µg/mL (≈ 104 µM) | – | Not Active |
| C=C(COC(C)=O)[C@H]1Cc2cc(C(C)=O)ccc2O1 | – | Not Active | 2.07 µg/mL (≈ 7.95 µM) | – | Not Active |
| C/C(=C/CC[C@@H](C)[C@H]1CC[C@@]2(C)C3=C(CC[C@]12C)[C@@]1(C)CCC(=O)C(C)(C)[C@@H]1CC3)C(=O)O [ANWUWEIZONIC ACID] | – | Not Active | 2.14 µg/mL (≈ 4.71 µM) | – | Not Active |
| C=C(C)[C@@H]1CC[C@]2(C(=O)O)CC[C@]3(C)[C@H](CC[C@@H]4[C@@]5(C)CCC(=O)C(C)(C)[C@@H]5CC[C@]43C)[C@@H]12 [BETUNOLIC ACID] | 0.22 µg/mL (≈ 0.484 µM) | – | 1.8 µg/mL (≈ 3.96 µM) | 8 | – |
| CC1(C)C=C2[C@H]3CC[C@@H]4[C@@]5(C)CC[C@H](O)C(C)(C)[C@@H]5CC[C@@]4(C)[C@]3(C)CC[C@@]2(C(=O)O)CC1 [MOROLIC ACID] | 2.7 µg/mL (≈ 5.91 µM) | – | 22.1 µg/mL (≈ 48.4 µM) | 8.17 | – |
